Reference: US20070203216A1, “METHOD OF TREATING INFLAMMATORY DISEASES” (priority 2006, published 2007)
Entries after “also recorded” stand apart in the source; their conditions may differ.

Legend:
[1] = test system: chronic mild stress rats; experiment: Chronic mild stress model in rats, serum marker analysis; conditions: CMS rats; for reversal of stress-induced alterations in serum markers: versus non-stressed controls;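 for all read-outs here: terminal serum drawn from the tail of rats 24 h after the final drug dose, profiled within a panel of roughly 60 blood markers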
Procedure: At the end of the present study, terminal serum samples were collected for marker analysis to evaluate the effects of stress with and without drug on the levels of about 60 blood markers.
Serum samples were withdrawn from the tail, without stunning, during the daytime (09:00-17:00) 24 hrs after the last drug injection. Blood was collected into BD vacutainers containing clot activator and gel for serum preparation, inverted 5 times and maintained on ice until centrifugation at 3000 rpm for 10 min at 4° C. Serum was decanted, placed on ice, and at the end of the day stored at −80° C.

[2] = test system: formalin pain model; conditions: U.S. Patent Application Publication No. 2005/0288371; cited from earlier work
[3] = 1st study, 5 mg/kg, serum, median
[4] = 2nd study, 10 mg/kg, serum, median

## CN(C)CCC[C@@]1(c2ccc(F)cc2)OCc2cc(C#N)ccc21 [ESC, Escitalopram, reference compound]
[1]; [3]
  Apo A1 (Apolipoprotein A1): 8.40 µg/mL
  CRP (C Reactive Protein): 1060.00 µg/mL
  Eotaxin: 1300.00 pg/mL
  FGF-9 (Fibroblast Growth Factor-9): 0.90 ng/mL
  GCP-2 (Granulocyte Chemotactic Protein-2): 0.21 ng/mL
  Growth Hormone: 1.38 ng/mL
  IL-1alpha (Interleukin-1alpha): 15.40 pg/mL
  IL-2 (Interleukin-2): 38.80 pg/mL
  IL-4 (Interleukin-4): 51.70 pg/mL
  IL-7 (Interleukin-7): 0.22 ng/mL
  IL-10 (Interleukin-10): 317.00 pg/mL
  IL-11 (Interleukin-11): 166.00 pg/mL
  IP-10 (Inducible Protein-10): 194.00 pg/mL
  IgA (Immunoglobulin A): 6.54 µg/mL
  Insulin: 11.30 ulU/mL
  LIF (Leukemia Inhibitory Factor): 67.20 pg/mL
  Leptin: 2.62 ng/mL
  Lymphotactin: 68.00 pg/mL
  M-CSF (Macrophage-Colony Stimulating Factor): 941.00 ng/mL
  MCP-1 (Monocyte Chemoattractant Protein-1): 1500.00 pg/mL
  MCP-3 (Monocyte Chemoattractant Protein-3): 885.00 pg/mL
  MCP-5 (Monocyte Chemoattractant Protein-5): 0.87 pg/mL
  MIP-1alpha (Macrophage Inflammatory Protein-1alpha): 244.00 ng/mL
  MIP-1gamma (Macrophage Inflammatory Protein-1gamma): 11.50 ng/mL
  MIP-2 (Macrophage Inflammatory Protein-2): 0.09 pg/mL
  MPO (Myeloperoxidase): 54.60 ng/mL
  NGAL (Lipocalin-2): 0.22 ng/mL
  Osteopontin: 310.00 ng/mL
  SAP (Serum Amyloid P): 178.00 µg/mL
  SCF (Stem Cell Factor): 16.95 pg/mL
  SGOT (Serum Glutamic-Oxaloacetic Transaminase): 0.31 µg/mL
  TIMP-1 (Tissue Inhibitor of Metalloproteinase Type-1): 0.22 ng/mL
  TPO (Thrombopoietin): 142.00 ng/mL
  Tissue Factor: 0.15 ng/mL
  VCAM-1 (Vascular Cell Adhesion Molecule-1): 409.00 ng/mL
  VEGF (Vascular Endothelial Cell Growth Factor): 106.00 pg/mL
[1]
  reversal of stress-induced alterations in serum markers: inactive at most of these changes

## Oc1noc2c1CCNC2 [GBX, 4,5,6,7-tetrahydroisoxazolo [5,4-c] pyridine-3-ol]
[2]
  pain response in phase 2 of the formalin pain model: inhibit the pain response in phase 2
[1]; [3]
  Apo A1 (Apolipoprotein A1): 8.20 µg/mL
  CRP (C Reactive Protein): 1140.00 µg/mL
  Cystatin-C: 1165.00 ng/mL
  FGF-9 (Fibroblast Growth Factor-9): 0.59 ng/mL
  GCP-2 (Granulocyte Chemotactic Protein-2): 0.19 ng/mL
  Growth Hormone: 7.67 ng/mL
  IL-1alpha (Interleukin-1alpha): 11.30 pg/mL
  IL-2 (Interleukin-2): 31.30 pg/mL
  IL-4 (Interleukin-4): 29.60 pg/mL
  IL-7 (Interleukin-7): 0.16 ng/mL
  IL-10 (Interleukin-10): 249.00 pg/mL
  IL-11 (Interleukin-11): 128.00 pg/mL
  IL-18 (Interleukin-18): 0.07 ng/mL
  IP-10 (Inducible Protein-10): 138.00 pg/mL
  IgA (Immunoglobulin A): 5.91 µg/mL
  Insulin: 8.88 ulU/mL
  LIF (Leukemia Inhibitory Factor): 53.90 pg/mL
  Leptin: 2.59 ng/mL
  Lymphotactin: 53.80 pg/mL
  M-CSF (Macrophage-Colony Stimulating Factor): 865.00 ng/mL
  MCP-1 (Monocyte Chemoattractant Protein-1): 1185.00 pg/mL
  MCP-3 (Monocyte Chemoattractant Protein-3): 655.00 pg/mL
  MCP-5 (Monocyte Chemoattractant Protein-5): 0.77 pg/mL
  MIP-1alpha (Macrophage Inflammatory Protein-1alpha): 173.00 ng/mL
  MIP-1gamma (Macrophage Inflammatory Protein-1gamma): 7.95 ng/mL
  MIP-2 (Macrophage Inflammatory Protein-2): 0.08 pg/mL
  MPO (Myeloperoxidase): 20.80 ng/mL
  NGAL (Lipocalin-2): 0.17 ng/mL
  Osteopontin: 396.00 ng/mL
  SAP (Serum Amyloid P): 133.00 µg/mL
  SCF (Stem Cell Factor): 14.85 pg/mL
  SGOT (Serum Glutamic-Oxaloacetic Transaminase): 0.21 µg/mL
  TIMP-1 (Tissue Inhibitor of Metalloproteinase Type-1): 0.16 ng/mL
  TPO (Thrombopoietin): 147.00 ng/mL
  Tissue Factor: 0.10 ng/mL
  VCAM-1 (Vascular Cell Adhesion Molecule-1): 361.00 ng/mL
  VEGF (Vascular Endothelial Cell Growth Factor): 81.00 pg/mL
[1]; [4]
  Apo A1 (Apolipoprotein A1): 6.20 µg/mL
  Beta-2 Microglobulin: 38.00 µg/mL
  CRP (C Reactive Protein): 1030.00 µg/mL
  Clusterin: 108.00 µg/mL
  Cystatin-C: 696.00 ng/mL
  Eotaxin: 1072.00 pg/mL
  FGF-9 (Fibroblast Growth Factor-9): 1.70 ng/mL
  Factor VII: 0.30 ng/mL
  GCP-2 (Granulocyte Chemotactic Protein-2): 0.29 ng/mL
  GST-Mu: 1190.00 ng/mL
  Growth Hormone: 3.10 ng/mL
  IL-1beta (Interleukin-1beta): 0.56 ng/mL
  IL-2 (Interleukin-2): 22.00 pg/mL
  IL-5 (Interleukin-5): 0.24 ng/mL
  IL-7 (Interleukin-7): 0.06 ng/mL
  IL-10 (Interleukin-10): 362.00 pg/mL
  IL-18 (Interleukin-18): 0.43 ng/mL
  IP-10 (Inducible Protein-10): 41.00 pg/mL
  IgA (Immunoglobulin A): 4.30 µg/mL
  Insulin: 14.50 ulU/mL
  LIF (Leukemia Inhibitory Factor): 67.00 pg/mL
  Leptin: 1.35 ng/mL
  Lymphotactin: 63.00 pg/mL
  M-CSF (Macrophage-Colony Stimulating Factor): 1400.00 ng/mL
  MCP-1 (Monocyte Chemoattractant Protein-1): 1020.00 pg/mL
  MCP-3 (Monocyte Chemoattractant Protein-3): 659.00 pg/mL
  MCP-5 (Monocyte Chemoattractant Protein-5): 0.72 pg/mL
  MDC (Macrophage-Derived Chemokine): 0.12 pg/mL
  MIP-1alpha (Macrophage Inflammatory Protein-1alpha): 127.00 ng/mL
  MIP-1beta (Macrophage Inflammatory Protein-1beta): 0.01 pg/mL
  MIP-1gamma (Macrophage Inflammatory Protein-1gamma): 19.00 ng/mL
  MIP-2 (Macrophage Inflammatory Protein-2): 0.22 pg/mL
  MIP-3beta (Macrophage Inflammatory Protein-3beta): 29.70 ng/mL
  MPO (Myeloperoxidase): 533.00 ng/mL
  Myoglobin: 520.00 ng/mL
  NGAL (Lipocalin-2): 0.15 ng/mL
  OSM (Oncostatin M): 19.10 ng/mL
  Osteopontin: 255.00 ng/mL
  RANTES (Regulation Upon Activation, Normal T-Cell Expressed and Secreted): 10.60 pg/mL
  SAP (Serum Amyloid P): 403.00 µg/mL
  SCF (Stem Cell Factor): 11.30 pg/mL
  SGOT (Serum Glutamic-Oxaloacetic Transaminase): 8.53 µg/mL
  TIMP-1 (Tissue Inhibitor of Metalloproteinase Type-1): 0.24 ng/mL
  TNF-alpha (Tumor Necrosis Factor-alpha): 4.45 ng/mL
  TPO (Thrombopoietin): 119.00 ng/mL
  Tissue Factor: 0.06 ng/mL
  VCAM-1 (Vascular Cell Adhesion Molecule-1): 353.00 ng/mL
  VEGF (Vascular Endothelial Cell Growth Factor): 78.00 pg/mL
[1]; listed as gaboxadol
  reversal of stress-induced alterations in serum markers: significantly reversed the stress-induced alterations in serum markers; also recorded: dose dependently is able to reverse or partially reverse changes
